# Reference: patent publication US8686150B2 (Sanofi, priority 2011, dated 2014)
# Molecular target: T1, human full-length recombinant PKC βII (Homo sapiens, UniProt P05771)
# T1 construct: Active human full-length recombinant PKC βII; purchased Invitrogen GmbH, Darmstadt, Germany
# Assay: Determination of PKC βII inhibition (Caliper mobility-shift kinase assay, Fluorescein-RFARKGSLRQKNV peptide substrate)
# Assay type: biochemical
# Conditions: example compounds at a final concentration of 1.14 μM (±0.15 μM)
# Experimental: Determination of PKC βII Inhibition
# PKC βII Inhibition was Determined According to the Following Protocol:
# Active human full-length recombinant PKC βII and the peptide substrate, Fluorescein-RFARKGSLRQKNV, were purchased from Invitrogen GmbH, Darmstadt, Germany. Adenosine-5′-triphosphate (ATP), bovine serum albumine (BSA), dimethylsulphoxide (DMSO), 4-(2-hydroxyethyl)piperazine-1-ethanesulfonic acid (Hepes), Triton X-100, 1,2-Dioleoyl-sn-glycerol (DAG), L-G-Phosphatidyl-L-serine (PS), calcium chloride (CaCl2), and Pluronic F-68 were purchased from Sigma-Aldrich, Munich, Germany. Magnesium chloride, 1 M sodium hydroxide solution, 1M hydrochloric acid solution and EDTA were obtained from Merck Biosciences, Darmstadt, Germany.
# Test compounds were diluted to three times the test concentration in buffer 1 (30 mM Hepes-NaOH, pH 7.4, 0.01% Pluronic F-68 and 3% (v/v) DMSO). The PKC enzyme was diluted to a concentration of 30 ng/ml in buffer 2 (30 mM Hepes-NaOH, pH 7.4, 15 mM MgCl2, 150 μM CaCl2, 150 μg/ml PS, 60 μg/ml DAG, and 0.045% (w/v) Triton X-100). The peptide substrate and ATP were diluted to concentrations of 3 μM and 120 μM, respectively, in buffer 2. Two μl of the compound solution were mixed with 2 μl of the diluted enzyme in a 384-well small volume microtiter plate (Greiner, Bio-One, Frickenhausen, Germany), and the kinase reaction was initiated by addition of 2 μl of the solution containing peptide substrate and ATP. After 60 min incubation at 32° C., the reaction was stopped by addition of 20 μl of a solution containing 130 mM Hepes-NaOH, pH 7.4. 0.0195% (v/v) Brij-35, 6.5 mM EDTA. 0.13% chip coating reagent 3 (Caliper Lifescience Inc, Hopkinton, Mass.) and 6.5% (v/v) DMSO. Phosphorylation of the substrate peptide was then detected on a Caliper 3000 instrument essentially as described by Pommereau et al (J. Biomol. Screening 2004, 9(5), 409-416). Separation conditions were as follows: Pressure −0.8 psi, upstream voltage −3000 V, downstream voltage −800 V. Positive controls (buffer 1 instead of compound) and negative controls (buffer 1 instead of compound and buffer 2 instead of kinase solution) were run in parallel on each plate. Fractional turnover (R) was determined as the height of the peak of the phosphorylated peptide product divided by the sum of the unphosphorylated substrate and phosphorylated product peak heights. Percent-inhibition values for the test compounds were determined using the formula % Inhibition=100*(1−(Rcompound−Rnegative control)/(Rpositive control−Rnegative control).
# In the following table % inhibition values observed with example compounds at a final concentration of 1.14 μM (±0.15 μM) are listed: […]
# T1 sequence (P05771 1-673 isoform P05771-2): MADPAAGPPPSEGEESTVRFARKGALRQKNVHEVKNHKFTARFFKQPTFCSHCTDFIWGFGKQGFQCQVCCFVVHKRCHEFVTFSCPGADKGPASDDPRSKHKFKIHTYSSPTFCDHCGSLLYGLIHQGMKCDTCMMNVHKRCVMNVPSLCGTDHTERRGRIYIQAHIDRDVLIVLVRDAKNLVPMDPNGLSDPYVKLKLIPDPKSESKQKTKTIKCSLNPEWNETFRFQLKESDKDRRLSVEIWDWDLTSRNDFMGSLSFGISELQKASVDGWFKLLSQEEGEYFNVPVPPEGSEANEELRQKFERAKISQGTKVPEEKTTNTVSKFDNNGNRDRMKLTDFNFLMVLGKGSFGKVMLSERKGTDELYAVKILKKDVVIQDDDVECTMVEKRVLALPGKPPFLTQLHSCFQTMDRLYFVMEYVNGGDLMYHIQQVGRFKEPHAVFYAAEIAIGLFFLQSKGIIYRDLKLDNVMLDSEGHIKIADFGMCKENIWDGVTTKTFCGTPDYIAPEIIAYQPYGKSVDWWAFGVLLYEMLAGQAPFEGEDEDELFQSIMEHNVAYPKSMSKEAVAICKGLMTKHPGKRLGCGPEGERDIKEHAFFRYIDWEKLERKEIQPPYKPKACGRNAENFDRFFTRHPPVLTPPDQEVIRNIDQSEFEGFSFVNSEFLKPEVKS
row,SMILES,inhibition at 1.14 µM [%]
1,CCCc1n[nH]c2nc(-c3ccc(O)cc3)cc(C(=O)N3CCNCC3)c12 [Example 4],86
2,"Cc1cc(-c2cc(C(=O)N3CCNCC3)c3c(C)n[nH]c3n2)ccc1O [Example 8, [6-(4-Hydroxy-3-methyl-phenyl)-3-methyl-1H-pyrazolo[3,4-b]pyridin-4-yl]-piperazin-1-yl-methanone]",32
3,"COc1cc(-c2cc(C(=O)N3CCNCC3)c3c(C)n[nH]c3n2)ccc1O [Example 10, [6-(4-Hydroxy-3-methoxy-phenyl)-3-methyl-1H-pyrazolo[3,4-b]pyridin-4-yl]-piperazin-1-yl-methanone]",29
4,"Cc1n[nH]c2nc(-c3ccc(O)cc3F)cc(C(=O)N3CCNCC3)c12 [Example 11, [6-(2-Fluoro-4-hydroxy-phenyl)-3-methyl-1H-pyrazolo[3,4-b]pyridin-4-yl]-piperazin-1-yl-methanone]",101
5,"Cc1n[nH]c2nc(-c3cc(F)c(O)c(F)c3)cc(C(=O)N3CCNCC3)c12 [Example 12, [6-(3,5-Difluoro-4-hydroxy-phenyl)-3-methyl-1H-pyrazolo[3,4-b]pyridin-4-yl]-piperazin-1-yl-methanone]",61
6,"COc1cc(O)ccc1-c1cc(C(=O)N2CCNCC2)c2c(C)n[nH]c2n1 [Example 14, [6-(4-Hydroxy-2-methoxy-phenyl)-3-methyl-1H-pyrazolo[3,4-b]pyridin-4-yl]-piperazin-1-yl-methanone]",94
7,"CCOc1cc(-c2cc(C(=O)N3CCNCC3)c3c(C)n[nH]c3n2)ccc1O [Example 15, [6-(3-Ethoxy-4-hydroxy-phenyl)-3-methyl-1H-pyrazolo[3,4-b]pyridin-4-yl]-piperazin-1-yl-methanone]",35
8,"Cc1cc(O)ccc1-c1cc(C(=O)N2CCNC[C@@H]2C)c2c(C)n[nH]c2n1 [Example 17, [6-(4-Hydroxy-2-methyl-phenyl)-3-methyl-1H-pyrazolo[3,4-b]pyridin-4-yl]-((S)-2-methyl-piperazin-1-yl)-methanone]",95
9,"COc1cc(O)ccc1-c1cc(C(=O)N2CCNC[C@@H]2C)c2c(C)n[nH]c2n1 [Example 18, [6-(4-Hydroxy-2-methoxy-phenyl)-3-methyl-1H-pyrazolo[3,4-b]pyridin-4-yl]-((S)-2-methyl-piperazin-1-yl)-methanone]",94
10,"Cc1n[nH]c2nc(-c3ccc(O)cc3)cc(C(=O)N3CC4CC3CN4)c12 (centres unmarked) [Example 19, 2,5-Diaza-bicyclo[2.2.1]hept-2-yl-[6-(4-hydroxy-phenyl)-3-methyl-1H-pyrazolo[3,4-b]pyridin-4-yl]-methanone]",92
11,"Cc1n[nH]c2nc(-c3ccc(O)cc3)cc(C(=O)N3CCNC(c4ccccc4)C3)c12 (centres unmarked) [Example 25, [6-(4-Hydroxy-phenyl)-3-methyl-1H-pyrazolo[3,4-b]pyridin-4-yl]-(3-phenyl-piperazin-1-yl)-methanone]",89
12,"Cc1n[nH]c2nc(-c3ccc(O)cc3)cc(C(=O)N3CCNCC3c3ccccc3)c12 (centres unmarked) [Example 26, [6-(4-Hydroxy-phenyl)-3-methyl-1H-pyrazolo[3,4-b]pyridin-4-yl]-(2-phenyl-piperazin-1-yl)-methanone]",97

# Other lines, results leading:
row,inhibition at 1.14 µM [%],SMILES
1,74,"O=C(c1cc(-c2ccc(O)cc2)nc2[nH]nc(C(F)(F)F)c12)N1CCNCC1 [Example 5, [6-(4-Hydroxy-phenyl)-3-trifluoromethyl-1H-pyrazolo[3,4-b]pyridin-4-yl]-piperazin-1-yl-methanone]"
2,97,"Cc1n[nH]c2nc(-c3ccc(O)cc3Cl)cc(C(=O)N3CCNCC3)c12 [Example 6, [6-(2-Chloro-4-hydroxy-phenyl)-3-methyl-1H-pyrazolo[3,4-b]pyridin-4-yl]-piperazin-1-yl-methanone]"
3,91,"Cc1n[nH]c2nc(-c3ccc(O)c(F)c3)cc(C(=O)N3CCNCC3)c12 [Example 7, [6-(3-Fluoro-4-hydroxy-phenyl)-3-methyl-1H-pyrazolo[3,4-b]pyridin-4-yl]-piperazin-1-yl-methanone]"
4,41,"Cc1n[nH]c2nc(-c3ccc(O)c(Cl)c3)cc(C(=O)N3CCNCC3)c12 [Example 9, [6-(3-Chloro-4-hydroxy-phenyl)-3-methyl-1H-pyrazolo[3,4-b]pyridin-4-yl]-piperazin-1-yl-methanone]"
5,96,"Cc1cc(O)ccc1-c1cc(C(=O)N2CCNCC2)c2c(C)n[nH]c2n1 [Example 13, [6-(4-Hydroxy-2-methyl-phenyl)-3-methyl-1H-pyrazolo[3,4-b]pyridin-4-yl]-piperazin-1-yl-methanone]"
6,69,"Cc1n[nH]c2nc(-c3cc(F)c(O)c(F)c3)cc(C(=O)N3CCNC[C@@H]3C)c12 [Example 16, [6-(3,5-Difluoro-4-hydroxy-phenyl)-3-methyl-1H-pyrazolo[3,4-b]pyridin-4-yl]-((S)-2-methyl-piperazin-1-yl)-methanone]"
7,110,"CC[C@H]1CNCCN1C(=O)c1cc(-c2ccc(O)cc2)nc2[nH]nc(C)c12 [Example 20, ((S)-2-Ethyl-piperazin-1-yl)-[6-(4-hydroxy-phenyl)-3-methyl-1H-pyrazolo[3,4-b]pyridin-4-yl]-methanone]"
8,121,"COC[C@H]1CNCCN1C(=O)c1cc(-c2ccc(O)cc2)nc2[nH]nc(C)c12 [Example 21, [6-(4-Hydroxy-phenyl)-3-methyl-1H-pyrazolo[3,4-b]pyridin-4-yl]-((R)-2-methoxymethyl-piperazin-1-yl)-methanone]"
9,63,"Cc1n[nH]c2nc(-c3ccc(O)cc3)cc(C(=O)N(CCc3ccccc3)[C@@H]3CCCNC3)c12 [Example 22, 6-(4-Hydroxy-phenyl)-3-methyl-1H-pyrazolo[3,4-b]pyridine-4-carboxylic acid phenethyl-(R)-piperidin-3-yl-amide]"
10,95,"Cc1n[nH]c2nc(-c3ccc(O)cc3)cc(C(=O)N3CCNC[C@H]3C)c12 [Example 23, [6-(4-Hydroxy-phenyl)-3-methyl-1H-pyrazolo[3,4-b]pyridin-4-yl]-((R)-2-methyl-piperazin-1-yl)-methanone]"
11,95,"Cc1n[nH]c2nc(-c3ccc(O)cc3)cc(C(=O)N3C[C@@H](C)N[C@@H](C)C3)c12 [Example 24, ((3R,5S)-3,5-Dimethyl-piperazin-1-yl)-[6-(4-hydroxy-phenyl)-3-methyl-1H-pyrazolo[3,4-b]pyridin-4-yl]-methanone]"
12,95,"Cc1n[nH]c2nc(-c3ccc(O)cc3)cc(C(=O)N3CCNC[C@@H]3c3ccccc3)c12 [Example 27, [6-(4-Hydroxy-phenyl)-3-methyl-1H-pyrazolo[3,4-b]pyridin-4-yl]-((S)-2-phenyl-piperazin-1-yl)-methanone]"
13,99,"Cc1n[nH]c2nc(-c3ccc(O)cc3)cc(C(=O)N3CCNC[C@H]3c3ccccc3)c12 [Example 28, [6-(4-Hydroxy-phenyl)-3-methyl-1H-pyrazolo[3,4-b]pyridin-4-yl]-((R)-2-phenyl-piperazin-1-yl)-methanone]"
14,99,"Cc1n[nH]c2nc(-c3ccc(O)cc3)cc(C(=O)N3CCNCC3c3ccc(Cl)c(Cl)c3)c12 (centres unmarked) [Example 29, [2-(3,4-Dichloro-phenyl)-piperazin-1-yl]-[6-(4-hydroxy-phenyl)-3-methyl-1H-pyrazolo[3,4-b]pyridin-4-yl]-methanone]"
